Data from publication PMC12040169 (PLOS Biology, 2025).

Experiment: in vitro
Details: human, hela cells, % viability

In order of falling viability at 28.5 h, 10 µM:
1. O=C1CN(C(=O)NCCOc2ccccc2)CCN1 [CBK155871]  120%
2. CN1CCC(N(C)C(=O)Nc2ccc3c(c2)OCCO3)C1 (stereo not drawn) [CBK156008]  116%
3. O=C(Nc1ccc(Cl)cc1)N1CCCC(CO)C1 (stereo not drawn) [CBK156047]  112%
4. CN1CCC(N2CCN(C(=O)Nc3ccc(Cl)cc3)CC2)CC1 [CBK155899]  109%
5. CCOC(=O)N1CCC(NC(=O)N2CCCCC2CO)CC1 (stereo not drawn) [CBK155991]  106%
6. CSCCCNC(=O)N1CCCC(CO)C1 (stereo not drawn) [CBK156031]  106%
7. O=C1CN(C(=O)NCc2cccc(C(F)(F)F)c2)CCN1 [CBK155850]  105%
8. O=S(=O)(/C=C/c1ccccc1)Nc1cccc2[nH]ccc12 [CBK155772]  103%
9. CC(C)COC(=O)N1CCC2(CC1)CC(=O)N(Cc1ccc(S(C)(=O)=O)cc1)C2=O [CBK155948]  103%
10. Cc1cc(CNC(=O)N(C)C2CCN(C)C2)no1 (stereo not drawn) [CBK155992]  103%
11. Cc1ccc(NC(=O)N(C)C2CCN(C)C2)cc1 (stereo not drawn) [CBK156023]  103%
12. CCN(CC)CCCNC(=O)N1CCCC(CO)C1 (stereo not drawn) [CBK156061]  103%
13. O=C1CN(C(=O)NCc2cccc3ccccc23)CCN1 [CBK155852]  102%
14. CCOC(=O)N1CCC(NC(=O)N(C)C2CCN(C)C2)CC1 (stereo not drawn) [CBK156027]  102%
15. O=C(NCc1ccc(F)cc1)N1CCCC(CO)C1 (stereo not drawn) [CBK156056]  102%
16. CN1CCC(N2CCN(C(=O)NCCCN3CCCC3=O)CC2)CC1 [CBK156105]  102%
17. COc1ccc2[nH]cc(CCNC(=O)N3CCN(CCN4CCOCC4)CC3)c2c1 [CBK155818]  101%
18. COc1cc(NC(=O)N(C)C2CCN(C)C2)cc(OC)c1OC (stereo not drawn) [CBK156022]  101%
19. CN1CCC(N(C)C(=O)NCC2COc3ccccc3O2)C1 (stereo not drawn) [CBK155994]  100%
20. COc1ccc(CCNC(=O)N(C)C2CCN(C)C2)cc1 (stereo not drawn) [CBK156019]  100%
21. CCN(CC)C(=O)C1CCCN(C(=O)NCc2ccc3c(c2)OCO3)C1 (stereo not drawn) [CBK156121]  100%
22. CN1CCN(CCCNC(=O)N2CCCC(CO)C2)CC1 (stereo not drawn) [CBK156029]  99.7%
23. O=C(O)c1cccc(NS(=O)(=O)c2cccc([N+](=O)[O-])c2)c1 [CBK155711]  99.2%
24. CN1CCC(N(C)C(=O)NCc2c(Cl)cccc2Cl)C1 (stereo not drawn) [CBK156014]  99%
25. CSCCCNC(=O)N1CCNC(=O)C1 [CBK155848]  98.3%
26. CCN(CC)CCCNC(=O)N1CCCCC1CO (stereo not drawn) [CBK155982]  97.9%
27. O=C1CN(C(=O)Nc2ccccc2Cl)CCN1 [CBK155862]  96.7%
28. O=C(NCc1ccc(Cl)cc1)N1CCCC(CO)C1 (stereo not drawn) [CBK156053]  96.6%
29. CN1CCN(CCCNC(=O)N(C)C2CCN(C)C2)CC1 (stereo not drawn) [CBK155993]  96.4%
30. CN1CCC(N(C)C(=O)NC(c2ccccc2)c2ccccc2)C1 (stereo not drawn) [CBK156000]  96.4%
31. CN(C)C(=O)c1ccc(-c2ccc(COC3CCN(C(=O)Cc4ccc(F)cc4)CC3)c(S(C)(=O)=O)c2)cc1 [CBK155963]  96.1%
32. N#Cc1cccc(S(=O)(=O)Nc2cccc(C(=O)O)c2)c1 [CBK155699]  95.7%
33. CC(C)CCNC(=O)N1CCC(C(=O)O)CC1 [CBK156075]  95.3%
34. CCOC(=O)N1CCC(NC(=O)N2CCC(C(=O)O)CC2)CC1 [CBK156080]  95.2%
35. CN(C)C(=O)c1ccc(-c2ccc(COC3CCN(C(=O)c4cc5ccccc5o4)CC3)c(S(C)(=O)=O)c2)cc1 [CBK155965]  94.6%
36. O=C(O)c1cccc(NS(=O)(=O)CC(F)(F)F)c1 [CBK155712]  94.3%
37. COc1ccc(CCNC(=O)N2CCN(C3CCN(C)CC3)CC2)cc1OC [CBK155897]  94.3%
38. CN1CCC(N2CCN(C(=O)NCCN3CCOCC3)CC2)CC1 [CBK155891]  93.8%
39. CN1CCC(N(C)C(=O)Nc2ccc(C(N)=O)cc2)C1 (stereo not drawn) [CBK156015]  93.8%
40. CN1CCC(N(C)C(=O)Nc2cccnc2)C1 (stereo not drawn) [CBK156026]  93.8%
41. CN1CCC(N(C)C(=O)NCc2cccnc2)C1 (stereo not drawn) [CBK156001]  93.5%
42. CN1CCC(N2CCN(C(=O)Nc3cccnc3)CC2)CC1 [CBK156111]  93.1%
43. O=C1CN(C(=O)Nc2ccc3c(c2)OCCO3)CCN1 [CBK155860]  92.9%
44. CN1CCC(N2CCN(C(=O)NCc3ccc(Cl)c(Cl)c3)CC2)CC1 [CBK155883]  92.5%
45. CN1CCC(N(C)C(=O)NCc2ccc(Cl)c(Cl)c2)C1 (stereo not drawn) [CBK155996]  92.4%
46. O=C(O)c1cccc(NS(=O)(=O)c2ccc3c(c2)CN(C(=O)C(F)(F)F)CC3)c1 [CBK155709]  92.2%
47. CN1CCC(N(C)C(=O)Nc2ccc3[nH]ccc3c2)C1 (stereo not drawn) [CBK156006]  92.2%
48. CCOC(=O)N1CCC(NC(=O)N2CCN(C3CCN(C)CC3)CC2)CC1 [CBK156113]  92.2%
49. O=C1CCCN1CCCNC(=O)N1CCCCC1CO (stereo not drawn) [CBK155985]  91.8%
50. COc1cc(CNC(=O)N2CCCC(CO)C2)cc(OC)c1OC (stereo not drawn) [CBK156041]  91.5%
51. Cc1cnc(CNC(=O)N2CCN(C3CCN(C)CC3)CC2)cn1 [CBK155886]  91.3%
52. O=C(NCC1COc2ccccc2O1)N1CCCC(CO)C1 (stereo not drawn) [CBK156030]  91.3%
53. CCN(CC)CCCNC(=O)N1CCN(CCN2CCOCC2)CC1 [CBK155837]  90.9%
54. O=C(NCc1cccnc1)N1CCCC(CO)C1 (stereo not drawn) [CBK156037]  90.5%
55. CCN(CC)C(=O)C1CCCN(C(=O)NCc2cc(C)on2)C1 (stereo not drawn) [CBK156114]  89.5%
56. O=C(Nc1ccccc1Cl)N1CCN(CCN2CCOCC2)CC1 [CBK155824]  89.4%
57. CN1CCC(N(C)C(=O)NCc2cccc3ccccc23)C1 (stereo not drawn) [CBK155999]  89.2%
58. COCCNC(=O)N1CCCC(CO)C1 (stereo not drawn) [CBK156040]  88.3%
59. O=C1CN(C(=O)NCc2ccc(F)cc2)CCN1 [CBK155869]  88.2%
60. CC(C)CNC(=O)N1CCN(CCN2CCOCC2)CC1 [CBK155826]  88.1%
61. COc1ccc(CCNC(=O)N2CCCC(CO)C2)cc1 (stereo not drawn) [CBK156059]  87.1%
62. CC(=O)Nc1cccc(NC(=O)N2CCN(C3CCN(C)CC3)CC2)c1 [CBK155901]  85.1%
63. O=C(O)C1CCN(C(=O)NCCOc2ccccc2)CC1 [CBK156072]  82.2%
64. NC(=O)c1ccc(NC(=O)N2CCN(CCN3CCOCC3)CC2)cc1 [CBK155831]  81.6%
65. CCN(CC)C(=O)C1CCCN(C(=O)NCC2COc3ccccc3O2)C1 (stereo not drawn) [CBK156116]  81.4%
66. O=C1CN(C(=O)Nc2ccc(Cl)cc2)CCN1 [CBK155861]  81.3%
67. Cc1ccc(NC(=O)N2CCCC(CO)C2)cc1 (stereo not drawn) [CBK156065]  77.9%
68. COc1ccc(CCNC(=O)N2CCC(C(=O)O)CC2)cc1 [CBK156073]  75.6%
69. Cc1cc(S(=O)(=O)Nc2ccc3[nH]ccc3c2)c(C)o1 [CBK155743]  71.4%
